As a reminder, the Ki is a dissociation constant, usually derived from enzyme kinetics or from competition with a known ligand.

Assay [1] concerns the target T1, human GnRH receptors (Homo sapiens, UniProt P30968).
T1 construct: expressed in transfected cells; host or cells: HEK 293
T1 sequence (P30968 1-328): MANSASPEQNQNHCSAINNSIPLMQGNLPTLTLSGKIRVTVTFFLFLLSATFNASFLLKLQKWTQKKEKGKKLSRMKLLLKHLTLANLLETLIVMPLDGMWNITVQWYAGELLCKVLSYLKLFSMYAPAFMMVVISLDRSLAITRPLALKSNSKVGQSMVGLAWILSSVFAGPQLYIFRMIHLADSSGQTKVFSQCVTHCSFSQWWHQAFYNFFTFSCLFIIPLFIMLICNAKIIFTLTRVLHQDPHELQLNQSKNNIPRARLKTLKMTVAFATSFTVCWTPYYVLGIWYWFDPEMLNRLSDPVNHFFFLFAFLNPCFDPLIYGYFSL
Briefly: Radioligand binding assay: inhibition of binding of 125I-GnRH-A to GnRH receptors (membranes). The note with it: Human GnRH receptor; competition with 125I-GnRH-A; Ki calculated from IC50 (Cheng et al.). The method, then:
(§1) HEK 293 cells stably transfected with mouse or human GnRH receptors as described above are grown in Dulbecco's high-glucose, modified Eagle's medium (DMEM) supplemented with 0.2% G418, 10% fetal bovine serum (FBS) and 100U/mL penicillin/streptomycin. GH3 cells stably transfected with the rat GnRH receptor (GGH3) were provided by Dr. William Chin (Harvard Medical School, Boston, Mass.). These cells are extensively characterized previously (Kaiser et al., 1997). The cells are grown in low glucose DMEM containing: 100U/mL penicillin/streptomycin, 0.6% G418 and 10% heat-inactivated FBS.
(§2) HEK 293 cells containing mouse or human receptors, or rat pituitaries (Pel Freez Biologicals, Rogers, Ark.) are homogenized in buffer A containing: 50 mM Tris (pH 7.4), 0.32 M sucrose, 2 mM EGTA, 1 mM PMSF, 5 μg/ml aprotinen, 5 μg/ml Pepstatin A, and 1 μg/ml leupeptin. Homogenized cells are centrifuged at 4° C. at 20,000×g for 25 minutes, re-suspended in buffer A and re-centrifuged at 4° C. at 20,000×g for an additional 25 minutes. Total membrane protein was determined with a BCA kit (Pierce, Rockford, Ill.). Membranes are stored at −70° C. at a final membrane protein concentration of approximately 5 mg/ml.
(§3) The radioiodinated agonist analog of GnRH, [des-Gly^10, D-Ala^6]GnRH ethylamide (^125I-GnRH-A), is used as the radioligand. One μg of GnRH-A diluted in 0.5 M phosphate buffer (pH 7.4) is added to an lodogen®-coated borosilicate glass tube (Pierce, Rockford, Ill.) containing 35 μl of 0.05 M phosphate buffer (pH 7.4-7.6) and 1 mCi of Na[^125I]. The reaction mixture is vortexed and incubated for 1 minute at room temperature. After one minute, the mixture is vortexed and allowed to incubate for an additional minute. 2 ml of 0.5 M acetic acid/1% BSA is added to the reaction tube and the mixture is added to a C18 Sep-Pak cartridge. The cartridge is washed with subsequent washes of 5 ml H2O and 5 ml 0.5 M acetic acid and then eluted with 5×1 ml of 60%CH3CN/40% 0.5 M acetic acid. The eluate is diluted with 3× volume of HPLC buffer A (0.1% TFA in H2O) and loaded onto a C18 column. The iodinated product is eluted over 20-25 min with a gradient of 25-100% CH3CN containing 0.1% TFA. The radioactive fractions (750 μl/fraction) are collected into clean polypropylene tubes containing 100 μl of 10% BSA. Fractions are assessed for biological activity by radiolig and binding. Specific activity of the radioligand was approximately 2200 Ci/mmol.
(§4) Membranes are diluted to 0.01-0.5 mg/ml (depending upon the species of receptor) with assay buffer containing 50 mM HEPES (pH 7.4), 1 mM EDTA, 2.5 mM MgCl2, and 0.1% BSA. Membranes (diluted to utilize similar receptor numbers between assays) are incubated with approximately 0.04-0.06 nM ^125I-GnRH-A in the presence or absence of competing agents (0.1-10,000 nM) in a total volume of 200 μl in 96-well polypropylene plates for 1 hour at room temperature. Assays are stopped by rapid filtration onto 96-well GF/C filters soaked in 0.1% polyethylenimine (PEI) utilizing a Packard 96-well cell harvester. Filters are washed three times with ice-cold PBS (50 mM NaPO4, 0.9% NaCl, 2 mM MgCl2, and 0.02% NaN3, pH 7.4). 35 μl of scintillation cocktail is added to each filter well and filters are counted on a Packard Topcount. Control dose-response curves are generated to GnRH (0.1 nM-100 nM) in each competition binding experiment. Ki values were calculated from IC50 values according to Cheng et al., Biochemical Pharmacol. 22: 3099-3108, 1973. [formula]

The target of assay [2] is T2, rat GnRH receptor (Rattus norvegicus, UniProt P30969).
T2 construct: rat pituitaries (Pel Freez Biologicals, Rogers, Ark.) are homogenized in buffer A; tissue Pel Freez Biologicals; host or cells: rat pituitaries
T2 sequence (P30969 1-327): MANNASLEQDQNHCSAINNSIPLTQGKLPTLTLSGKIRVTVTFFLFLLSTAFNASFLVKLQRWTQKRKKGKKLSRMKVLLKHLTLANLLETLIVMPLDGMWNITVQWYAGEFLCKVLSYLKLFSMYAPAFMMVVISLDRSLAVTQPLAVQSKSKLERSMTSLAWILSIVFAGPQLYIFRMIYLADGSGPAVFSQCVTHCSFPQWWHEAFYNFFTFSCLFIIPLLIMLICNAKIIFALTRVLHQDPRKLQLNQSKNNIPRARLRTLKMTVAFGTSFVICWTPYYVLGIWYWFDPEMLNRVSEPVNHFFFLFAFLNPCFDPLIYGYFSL
Described as above. The settings on record: competition with 125I-GnRH-A, Ki calculated from IC50 (Cheng et al.). The method, then:
as §1, §2, §3, §4

For the compound `Cc1cc2c(cc1Oc1ccc(C(=O)NNc3ccc(C(F)(F)F)cn3)o1)C(C)(C)C(C)C2(C)C` (stereo not shown) [Example M2, 5-(1,1,2,3,3,6-Hexamethyl-indan-5-yloxy)-furan-2-carboxylic acid N′-(5-trifluoromethyl-pyridin-2-yl)-hydrazide], the Ki in assay [1] was 19 nM; in assay [2], 29 nM. In the same order, the values of `Cc1cc2c(cc1Cc1ccc(C(=O)NNc3ncc(C(F)(F)F)cc3Cl)o1)C(C)(C)OC2(C)C` [Example E3, N′-[3-chloro-5-(trifluoromethyl)pyridin-2-yl]-5-[(1,1,3,3,6-pentamethyl-1,3-dihydro-2-benzofuran-5-yl)methyl]-2-furohydrazide] are 840 nM and 91 nM. Taken in the same sequence, the figures for `Cc1cc2c(cc1Cc1ccc(C(=O)NNc3cc(C)c4c(C)nn(C)c4n3)o1)C(C)(C)CCC2` [Example J26, 5-(3,8,8-Trimethyl-5,6,7,8-tetrahydro-naphthalen-2-ylmethyl)-furan-2-carboxylic acid N′-(1,3,4-trimethyl-1H-pyrazolo[3,4-b]pyridin-6-yl)-hydrazide] were 1.6 nM and 17 nM. Take `Cc1cc2c(c(Br)c1Oc1ccc(C(=O)NNc3cc(C)c4c(C)nn(C)c4n3)o1)C(C)(C)CC2` [Example I22, 5-(4-Bromo-3,3,6-trimethyl-indan-5-yloxy)-furan-2-carboxylic acid N′-(1,3,4-trimethyl-1H-pyrazolo[3,4-b]pyridin-6-yl)-hydrazide]: the Ki is 10 nM in assay [1] and 52 nM in assay [2]. In the case of `Cc1cc2c(cc1Oc1ccc(C(=O)NNc3ccc4ccccc4n3)o1)C(C)(C)C(C)C2(C)C` (stereo not shown) [Example M3, 5-(1,1,2,3,3,6-Hexamethyl-indan-5-yloxy)-furan-2-carboxylic acid N′-quinolin-2-yl-hydrazide], the Ki is 4.1 nM in assay [1] and 2.9 nM in assay [2].

For the compound `Cc1ccc(N(C)NC(=O)c2ccc(Oc3cc4c(cc3C)C(C)(C)C(C)CC4(C)C)o2)nn1` (stereo not shown) [Example I16, 5-(3,5,5,6,8,8-Hexamethyl-5,6,7,8-etrahydro-naphthalen-2-yloxy)-furan-2-carboxylic acid N′-methyl-N′-(6-methyl-pyridazin-3-yl)-hydrazide], the inhibition constant (Ki) in assay [1] was 9 nM; in assay [2], 18 nM. With `Cc1cc2c(cc1Oc1ccc(C(=O)NNc3ccc(C(F)(F)F)cn3)o1)C(C)(C)OC2` [Example N4, 5-(3,3,6-Trimethyl-1,3-dihydro-isobenzofuran-5-yloxy)-furan-2-carboxylic acid N′-(5-trifluoromethyl-pyridin-2-yl)-hydrazide], the Ki in assay [1] was 1500 nM. Still for that read-out and setting: with `Cc1cc(C)c(Cc2ccc(C(=O)NNc3cc(C)c4c(C)nn(C)c4n3)o2)c(C)c1` [Example J3, 5-(Mesitylmethyl)-N′-(1,3,4-trimethyl-1H-pyrazolo[3,4-b]pyridin-6-yl)-2-furohydrazide] the figure was 400 nM.

With `Cc1cc2c(cc1Oc1ccc(C(=O)NNc3ncc(C(F)(F)F)cc3Cl)o1)C(C)(C)C(C)C2(C)C` (stereo not shown) [Example M1, 5-(1,1,2,3,3,6-Hexamethyl-indan-5-yloxy)-furan-2-carboxylic acid N′-(chloro-trifluoromethyl-pyridin-2-yl)-hydrazide], the Ki in assay [1] is 23 nM; in assay [2], 11 nM. Take `Cc1ccc(C)c(Cc2ccc(C(=O)NNc3cc(C)c4c(C)nn(C)c4n3)o2)c1` [Example J17]: the inhibition constant Ki in assay [1] is 610 nM.

As to `COc1ccc(OC)c(Cc2ccc(C(=O)NNc3cc(C)c4c(C)nn(C)c4n3)o2)c1` [Example J6, 5-(2,5-Dimethoxy-benzyl)-furan-2-carboxylic acid N′-(1,3,4-trimethyl-1H-pyrazolo[3,4-b]pyridin-6-yl)-hydrazide], in assay [1], the Ki was 16100 nM.

For the compound `Cc1cc(C)cc(NNC(=O)c2ccc(Cc3cc4c(cc3C)C(C)(C)CCC4(C)C)o2)c1` [Example B2, N′-(3,5-dimethylphenyl)-5-[(3,5,5,8,8-pentamethyl-5,6,7,8-tetrahydro-2-naphthalenyl)methyl]-2furohydrazide], the Ki in assay [1] was 310 nM. For the compound `Cc1cc2c(cc1Cc1ccc(C(=O)NNc3ccc4ccccc4n3)o1)C(C)(C)OC2(C)C` [Example E4, 5-(1,1,3,3,6-Pentamethyl-1,3-dihydro-isobenzofuran-5-ylmethyl)-furan-2-carboxylic acid N′-quinolin-2-yl-hydrazide], the inhibitory constant (Ki) in assay [1] is 24 nM; in assay [2], 23 nM. Turning to `Cc1cc(O)ccc1Cc1ccc(C(=O)NNc2cc(C)c3c(C)nn(C)c3n2)o1` [Example J21, 5-(4-Hydroxy-2-methylbenzyl)-N′-(1,3,4-trimethyl-1H-pyrazolo[3,4-b]pyridin-6-yl)-2-furohydrazide], the Ki in assay [1] is no less than 10000 nM. In the case of `COc1cccc(OC)c1CNNC(=O)c1ccc(Cc2cc3c(cc2C)C(C)(C)CCC3(C)C)o1` [Example A2], in assay [1], the inhibition constant (Ki) is 700 nM. Consider `Cc1cc(NNC(=O)c2ccc(Oc3cc4c(cc3Cl)NC(=O)CC4(C)C)o2)nc2c1c(C)nn2C` [Example L1], for which the inhibition constant Ki in assay [1] was 2110 nM. As to `COc1cc(OC)c(OC)cc1Cc1ccc(C(=O)NNc2cc(C)c3c(C)nn(C)c3n2)o1` [Example J14, 5-(2,4,5-trimethoxybenzyl)-N-(1,3,4-trimethyl-1H-pyrazolo[3,4-b]pyridin-6-yl)-2-furohydrazide], the Ki in assay [1] is greater than 10000 nM. Same read-out and setting: for `Cc1cc(NNC(=O)c2ccc(Oc3cc4c(cc3Cl)N(C)C(=O)CC4(C)C)o2)nc2c1c(C)nn2C` [Example L2, 5-(7-Chloro-1,4,4-trimethyl-2-oxo-1,2,3,4-tetrahydro-quinolin-6-yloxy)-furan-2-carboxylic acid N′-(1,3,4-trimethyl-1H-pyrazolo[3,4-b]pyridin-6-yl)-hydrazide] the value was 5020 nM; for `Cc1cc2c(cc1Cc1ccc(C(=O)NNc3ccc(C(F)(F)F)cn3)o1)C(C)(C)OC2(C)C` [Example E5, 5-(1,1,3,3,6-Pentamethyl-1,3-dihydro-isobenzofuran-5-ylmethyl)-furan-2-carboxylic acid N′-(5-trifluoromethyl-pyridin-2-yl)-hydrazide], 390 nM. Consider `CCN(CC)C(=O)c1ccc(C)c(Oc2ccc(C(=O)NNc3cc(C)c4c(C)nn(C)c4n3)o2)c1` [Example H1, N,N-diethyl-4-methyl-3-[(5-{[2-(1,3,4-trimethyl-1H-pyrazolo[3,4-b]pyridin-6-yl)hydrazino]carbonyl}-2-furyl)oxy]benzamide], for which the Ki in assay [1] is 5600 nM.
